For the assay, the target named is T1, purified recombinant human p38 alpha MAPK (Homo sapiens, UniProt Q16539).
T1 construct: purchased Millipore, USA
The assay can be described thus: Inhibition of p38 alpha MAPK activity, TR-FRET kinase assay. Type of assay: biochemical. The settings on record: Concentration 1 μM; for inhibition at 1 µM: read-out: P38α Inhibition. The protocol: Inhibition of p38 Alpha MAPK Activity: Time-Resolved Fluorescence Resonance Energy Transfer Kinase Standard Assay (TR-FRET Assay)
Compounds of present invention at various concentrations were premixed with DMSO. The experiment was initiated by mixing 0.5%-1.0% DMSO as vehicle/compounds with purified recombinant human p38 alpha MAPK (Millipore, USA) in the wells and 15 min incubation at room temperature. Thereafter, 30 nM of Biotinylated GST-ATF2 (Activation transcription Factor2) and 100 μM of ATP were added in to the wells containing reaction mixture, followed by reincubation for 60 minutes at RT. Reaction was terminated by addition of 10 mM of EDTA and detection reagent containing anti-phosphotheronine ATF2 antibody (PerkinElmer®, USA) labeled with europium chelate and APC (Allophycocyanin) labeled streptavidin, into the reaction mixture which was further incubated for 60 minutes at room temperature. The degree of phosphorylation of the substrate (GST-ATF2) was measured using Envision multimode reader (PerkinElmer®). Percentage inhibition of p38 kinase activity was calculated by determining ratio of specific europium 665 nm energy transfer signal to reference 615 nm signal.
In general terms: In TR-FRET formats the signal depends on donor and acceptor labels being close together.

T1 sequence (Q16539 whole entry): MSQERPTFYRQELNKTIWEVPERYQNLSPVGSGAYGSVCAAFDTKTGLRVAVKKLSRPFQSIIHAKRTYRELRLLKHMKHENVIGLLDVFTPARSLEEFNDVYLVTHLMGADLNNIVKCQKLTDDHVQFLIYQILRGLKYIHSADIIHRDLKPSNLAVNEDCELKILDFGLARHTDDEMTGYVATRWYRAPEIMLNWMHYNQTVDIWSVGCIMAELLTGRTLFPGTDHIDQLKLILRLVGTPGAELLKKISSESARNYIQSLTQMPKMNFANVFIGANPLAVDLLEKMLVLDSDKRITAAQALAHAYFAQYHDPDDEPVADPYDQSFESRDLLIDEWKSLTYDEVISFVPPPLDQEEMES

By inhibition is commonly meant the drop in the measured response relative to a control, in per cent. With `CCc1ccc(-n2nc(C(C)(C)C)cc2NC(=O)Nc2ccc(OCCN3CCn4c(nnc4-c4ccccc4OC)C3)c3c2CCC3)cc1` [Compound 23, 1-[3-tert-butyl-1-(4-ethylphenyl)-1H-pyrazol-5-yl]-3-(7-{2-[3-(2-methoxyphenyl)-5,6-dihydro[1,2,4]triazolo[4,3-a]pyrazin-7(8H)-yl]ethoxy}-2,3-dihydro-1H-inden-4-yl)urea], the inhibition at 1 µM fell in the range of 80 to 100%.
The same measure, in the same setting: as for `CSc1ccccc1-c1nnc2n1CCN(CCOc1ccc(NC(=O)Nc3cc(C(C)(C)C)nn3-c3ccc(O)c(Cl)c3)c3c1CCC3)C2` [Compound 24, 1-[3-tert-butyl-1-(3-chloro-4-hydroxyphenyl)-1H-pyrazol-5-yl]-3-[7-(2-{3-[2-(methylsulfanyl)phenyl]-5,6-dihydro[1,2,4]triazolo[4,3-a]pyrazin-7(8H)-yl}ethoxy)-2,3-dihydro-1H-inden-4-yl]urea], the figure is 80 to 100%.
With `COc1ccccc1-c1nnc2n1CCN(CCOc1ccc(NC(=O)Nc3cc(C(C)(C)C)nn3-c3ccc(O)c(Cl)c3)c3c1CCC3)C2` [Compound 25, 1-[3-tert-buty1-1-(3-chloro-4-hydroxyphenyl)-1H-pyrazol-5-yl]-3-(7-{2-[3-(2-methoxyphenyl)-5,6-dihydro[1,2,4]triazolo[4,3-a]pyrazin-7(8H)-yl]ethoxy}-2,3-dihydro-1H-inden-4-yl)urea], the “P38α Inhibition” value is recorded as “+++++ (+++++ = Inhibition ≥80% ≥ 100%)”.
For the compound `CC(C)(C)c1cc(NC(=O)Nc2ccc(OCCN3CCn4c(nnc4-c4ccccc4O)C3)c3c2CCC3)n(-c2ccc(O)c(Cl)c2)n1` [Compound 26, 1-[3-tert-butyl-1-(3-chloro-4-hydroxyphenyl)-1H-pyrazol-5-yl]-3-(7-{2-[3-(2-hydroxyphenyl)-5,6-dihydro[1,2,4]triazolo[4,3-a]pyrazin-7(8H)-yl]ethoxy}-2,3-dihydro-1H-inden-4-yl)urea], the inhibition at 1 µM lay in the range of 80 to 100%.
The same measure, in the same setting: as for `CCCOc1ccccc1-c1nnc2n1CCN(CCOc1ccc(NC(=O)Nc3cc(C(C)(C)C)nn3-c3ccc(O)c(Cl)c3)c3c1CCC3)C2` [Compound 27, 1-[3-tert-butyl-1-(3-chloro-4-hydroxyphenyl)-1H-pyrazol-5-yl]-3-(7-{2-[3-(2-propoxyphenyl)-5,6-dihydro[1,2,4]triazolo[4,3-a]pyrazin-7(8H)-yl]ethoxy}-2,3-dihydro-1H-inden-4-yl)urea], the figure is 80 to 100%; as for `Cc1ccc(-n2nc(C(C)(C)C)cc2NC(=O)Nc2ccc(OCCCN3CCN(CC4CC4)C(=O)C3)c3c2CCC3)cc1` [Compound 28, 1-[3-tert-butyl-1-(4-methylphenyl)-1H-pyrazol-5-yl]-3-(7-{3-[4-(cyclopropylmethyl)-3-oxopiperazin-1-yl]propoxy}-2,3-dihydro-1H-inden-4-yl)urea], 80 to 100%.
Same read-out and setting: as for `Cc1ccc(-n2nc(C(C)(C)C)cc2NC(=O)Nc2ccc(OCCN3CCn4c(nnc4-c4cccc(Cl)c4O)C3)c3c2CCC3)cc1` [Compound 29, 1-[3-tert-butyl-1-(4-methylphenyl)-1H-pyrazol-5-yl]-3-(7-{2-[3-(3-chloro-2-hydroxyphenyl)-5,6-dihydro[1,2,4]triazolo[4,3-a]pyrazin-7(8H)-yl]ethoxy}-2,3-dihydro-1H-inden-4-yl)urea], the figure is 80 to 100%; as for `Cc1ccc(-n2nc(C(C)(C)C)cc2NC(=O)Nc2ccc(OCCN3CCn4c(nnc4-c4ccccc4OCCO)C3)c3c2CCC3)cc1` [Compound 30, 1-[3-tert-butyl-1-(4-methylphenyl)-1H-pyrazol-5-yl]-3-[7-(2-{3-[2-(2-hydroxyethoxy)phenyl]-5,6-dihydro[1,2,4]triazolo[4,3-a]pyrazin-7(8H)-yl}ethoxy)-2,3-dihydro-1H-inden-4-yl]urea], 80 to 100%.
Same read-out and setting: as for `Cc1ccc(-n2nc(C(C)(C)C)cc2NC(=O)Nc2ccc(OCCN3CCn4c(nnc4-c4ccc(O)c(Cl)c4)C3)c3c2CCC3)cc1` [Compound 31, 1-[3-tert-butyl-1-(4-methylphenyl)-1H-pyrazol-5-yl]-3-(7-{2-[3-(3-chloro-4-hydroxyphenyl)-5,6-dihydro[1,2,4]triazolo[4,3-a]pyrazin-7(8H)-yl]ethoxy}-2,3-dihydro-1H-inden-4-yl)urea], the figure is 80 to 100%.

These data come from patent US9963463B2, “Urea-substituted indanes as P38 map kinase inhibitors” (TORRENT PHARMACEUTICALS LIMITED, priority 2014, dated 2018).
